Test results: paper PMC5071857, “A unique peptide deformylase platform to rationally design and challenge novel active compounds” (Scientific Reports, 2016)
Where two headings read alike, the source gives them in different places.

Tests used:
[1] = system: E. coli AG100A (AcrAB- derivative); assay: MIC by microdilution, E. coli AG100A; type: cell-based; settings: for MIC: Escherichia coli, 18 h, read-out: MIC AG100A; for MIC AG100A: with PMBN at 1/5 of its MIC, 18 h at 37 °C, average of three assays
Source text: (§1) Two E. coli strains, one B. subtilis strain, one S. aureus strain, one E. faecalis strain, one S. agalactiae strain and three Enterobacter aerogenes strains previously described were used. Briefly, AG100 was an E. coli wild type strain and AG100A its acrAB^- derivative. EA289 was a Kan^s derivative of an E. aerogenes multi-drug resistant (MDR) clinical isolate overexpressing AcrAB-TolC efflux pumps, and EA294 and EA298 its acrAB^- and tolC^- derivatives respectively. Strains were routinely grown at 37 °C on Luria-Bertani (LB) agar or in Mueller-Hinton II broth (MH), supplemented with kanamycine (50 μg.mL^−1) for AG100A, EA294 and EA298.
(§2) MIC values of antibiotics were determined by the microdilution method in liquid MH media in microplates in the absence or presence of chemosensitizers/modulators (e.g. PMBN, PAβN), as previously described. Permeabilization, blocking of efflux pumps, and isolates with different levels of porin or efflux expression were used to assess the involvement of the membrane barrier in antibiotic activity.
(§3) Susceptibilities were determined in 96-wells microplates with an inoculum of 2 × 10^5 cfu in 200 μL of MH broth containing two-fold serial dilutions of each antibiotics or compounds. Molecules were tested alone or in combination with other molecules in equimolar ratio. MICs were realized in the absence and in the presence of a membrane permeabilizer, the polymyxine B nonapeptide (PMBN) used at 51.2 mg/L (1/5 or 1/10 of its direct MIC previously determined). Actinonin and ciprofloxacin were used as internal antibiotic reference. […] Each test was systematically performed in triplicate. The average of three independent assays is presented in μg/mL in the respective tables.

[2] = system: B. subtilis 168; assay: MIC, B. subtilis 168; type: cell-based; settings: Bacillus subtilis
Source text: as §1, §2, §3

[3] = system: E. coli AG100; assay: MIC by microdilution, E. coli AG100; type: cell-based; settings: 18 h at 37 °C, average of three assays; for MIC: Escherichia coli, AG100, without PMBN; for MIC AG100: with PMBN at 1/5 of its MIC
Source text: as §1, §2, §3

[4] = molecular target: T1, EcPDF (Escherichia coli, UniProt P0A6K3); assay: PDF inhibition, formate dehydrogenase-coupled spectrophotometric assay (EcPDF); type: biochemical; settings: for EcPDF KI/KI*app: enhancement potency (slow tight-binding)
T1 construct: made in house
Method: (§4) The formate released by the deformylation reaction is used by FDH to convert NAD in NADH, the production of which being measured over time at 340 nm and controlled temperature (37 °C). The 200 μL reaction mixture contained 50 mM HEPES-NaOH pH7.5, 12 mM NAD^+, 4.5 U/mL FDH, 1 mM NiCl2 and PDF enzyme (either 40 nM SaPDF or 10 nM EcPDF or 100 nM AtPDF1B) previously diluted in presence of 0.1 mg/mL BSA. The reaction was started by addition of 1–6 mM Fo-Met-Ala-Ser. Kinetics parameters (kcat, Km) were derived from iterative non-linear least square fits using the Michaelis-menten equation based on the experimental data (Sigma-Plot, Kinetics module).
(§5) 1/KI*app is the slope of the v0/vi curve in function of compound concentration, where v0 and vi are the initial reaction rates in absence and presence of compound, respectively.
(§6) Determination of KI values was performed with a slightly modified protocol: reaction was started by addition of enzyme instead of Fo-Met-Ala-Ser, the latter being directly added to the mixture containing increasing concentrations of each compound. No pre-incubation of enzyme in presence of compound was done. 1/KI is the slope of the v0/vi curve in function of compound concentration, where v0 and vi are the initial reaction rates in absence and presence of compound respectively.

[5] = system: S. aureus SA113; assay: MIC, S. aureus SA113; type: cell-based; settings: Staphylococcus aureus
Source text: as §1, §2, §3

[6] = system: E. faecalis EFA 103.214; assay: MIC, E. faecalis EFA 103.214; type: cell-based; settings: Enterococcus faecalis, EFA103.214, read-out: MIC E. faecalis EFA 103.214
Source text: as §1, §2, §3

[7] = molecular target: T2, AtPDF1B (Arabidopsis thaliana, UniProt Q9FUZ2); assay: PDF inhibition, formate dehydrogenase-coupled spectrophotometric assay (AtPDF1B); type: biochemical; settings: no pre-incubation, assay initiated by addition of enzyme; 100 nM AtPDF1B; 37 °C
T2 construct: made in house
T2 sequence (Q9FUZ2 83-273): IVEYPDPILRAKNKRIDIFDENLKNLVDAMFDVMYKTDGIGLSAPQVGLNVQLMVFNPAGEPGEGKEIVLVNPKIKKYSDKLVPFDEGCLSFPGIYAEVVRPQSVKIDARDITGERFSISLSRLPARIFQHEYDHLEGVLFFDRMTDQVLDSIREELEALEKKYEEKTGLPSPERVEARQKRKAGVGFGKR

[8] = molecular target: T3, SaPDF (Streptococcus agalactiae serotype III, UniProt Q8E378, S2A); assay: biochemical; settings: SaPDF KI*app, PDFI pre-incubated with enzyme 10 min at 37 °C, started by 2 mM Fo-Met-Ala-Ser; 40 nM SaPDF
T3 construct: the recombinant protein contains all residues of the 204 amino acids mature protein; made in house; host or cells: E. coli Rosetta 2(DE3)pLysS

[9] = molecular target: T3, SaPDF; assay: biochemical; settings: for Ki: SaPDF KI, no pre-incubation, assay initiated by addition of enzyme, 40 nM SaPDF, 37 °C
Method: as §4, with “Enzymatic activity was measured by a spectrophotometric assay where peptide deformylase activity is coupled to that of formate dehydrogenase. The formate” for “The formate”
as §5, §6

[10] = system: E. aerogenes Ea289, MDR strain; assay: MIC by microdilution, E. aerogenes Ea289; type: cell-based, Enterobacter aerogenes; settings: for MIC Ea289: +PMBN at 1/5 of its MIC, average of three assays; for MIC: Klebsiella aerogenes, 18 h, read-out: MIC Ea289
Source text: as §1, §2, §3

[11] = molecular target: T2, AtPDF1B; assay: PDF inhibition, formate dehydrogenase-coupled spectrophotometric assay (AtPDF1B); type: biochemical; settings: for IC50 / Ki: 100 nM AtPDF1B; for IC50: 2 mM Fo-Met-Ala-Ser, 10 min pre-incubation at 37 °C; for Ki: PDFI pre-incubated with enzyme 10 min at 37 °C, started by 2 mM Fo-Met-Ala-Ser, read-out: AtPDF1B KI*app; for AtPDF1B KI/KI*app: enhancement potency (slow tight-binding)
Method: as §4, with “Enzymatic activity was measured by a spectrophotometric assay where peptide deformylase activity is coupled to that of formate dehydrogenase. The formate” for “The formate”
as §5, §6

[12] = system: E. aerogenes Ea294, Ea289 derivative AcrAB-; assay: MIC by microdilution, E. aerogenes Ea294; type: cell-based, Enterobacter aerogenes; settings: for MIC Ea294: +PMBN at 1/5 of its MIC, average of three assays; for MIC: Klebsiella aerogenes, 18 h, read-out: MIC Ea294
Source text: as §1, §2, §3

[13] = system: E. aerogenes Ea298, Ea289 derivative tolC-; assay: MIC by microdilution, E. aerogenes Ea298; type: cell-based, Enterobacter aerogenes; settings: Klebsiella aerogenes, 18 h, read-out: MIC Ea298
Source text: as §1, §2, §3

[14] = 10 nM EcPDF, 2 mM Fo-Met-Ala-Ser, 10 min pre-incubation at 37 °C, read-out: IC50 EcPDF
[15] = EcPDF KI*app, PDFI pre-incubated with enzyme 10 min at 37 °C, started by 2 mM Fo-Met-Ala-Ser, 10 nM EcPDF
[16] = EcPDF KI, no pre-incubation, assay initiated by addition of enzyme, 10 nM EcPDF, 37 °C

T1 sequence (P0A6K3 whole entry): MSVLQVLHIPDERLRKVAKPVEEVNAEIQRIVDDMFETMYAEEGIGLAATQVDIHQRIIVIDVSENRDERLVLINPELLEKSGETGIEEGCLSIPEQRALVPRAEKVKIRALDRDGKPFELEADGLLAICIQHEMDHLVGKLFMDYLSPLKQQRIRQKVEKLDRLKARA
T3 sequence (Q8E378 whole entry S2A): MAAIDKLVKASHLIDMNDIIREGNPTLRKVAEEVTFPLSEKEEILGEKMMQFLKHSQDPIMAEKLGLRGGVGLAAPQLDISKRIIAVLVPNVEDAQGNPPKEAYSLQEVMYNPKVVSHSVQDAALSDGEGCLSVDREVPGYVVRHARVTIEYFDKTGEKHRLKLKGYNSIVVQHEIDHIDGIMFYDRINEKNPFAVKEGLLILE

## CCCC[C@H](CC(=O)NO)c1nc(C(=O)N[C@H](C(N)=O)C(C)C)co1 [AT010]
[1]
  MIC: > 64 µg/mL
  MIC AG100A: >64 µg/mL
[2]
  MIC: > 64 µg/mL
[3]
  MIC: > 64 µg/mL
  MIC AG100: >64 µg/mL
[4]; [14]
  IC50: 420 nM
[5]
  MIC: > 64 µg/mL
[6]
  MIC: > 64 µg/mL

## CCCC[C@H](CC(=O)NO)c1nc(C(=O)N[C@H](C(=O)OC)C(C)C)co1 [AT009]
[1]
  MIC: > 64 µg/mL
  MIC AG100A: >64 µg/mL
[2]
  MIC: > 64 µg/mL
[3]
  MIC: > 64 µg/mL
  MIC AG100: >64 µg/mL
[4]; [14]
  IC50: 330 nM
[5]
  MIC: > 64 µg/mL
[6]
  MIC: > 64 µg/mL

## O=C(C[C@@H](CC1CCCC1)c1nc(Cc2coc3ccccc23)no1)NO [AT019]
[7]
  Ki: 263 ± 26 nM
[1]
  MIC: 16 µg/mL
  MIC AG100A: 0.5 µg/mL
[8]
  Ki: 7.5 ± 2 nM
[9]
  IC50: 7 ± 1 nM
  Ki: 65 ± 6 nM
[10]
  MIC Ea289: 16 µg/mL
  MIC: > 128 µg/mL
[3]
  MIC: > 64 µg/mL
  MIC AG100: 2 µg/mL
[11]
  IC50: 77 ± 5 nM
  Ki: 54 ± 2 nM
  AtPDF1B KI/KI*app: 5
[4]
  IC50: 6 ± 1 nM
  EcPDF KI/KI*app: 69
[4]; [15]
  Ki: 1.1 ± 0.3 nM
[4]; [16]
  Ki: 76 ± 4 nM
[12]
  MIC Ea294: 2 µg/mL
  MIC: 128 µg/mL
[13]
  MIC: 64 µg/mL

## O=C(C[C@@H](CC1CCCC1)c1nc(Cc2ccc3c(c2)OCO3)no1)NO [AT020]
[7]
  Ki: 238 ± 30 nM
[1]
  MIC: 16 µg/mL
  MIC AG100A: 4 µg/mL
[8]
  Ki: 8.5 ± 3 nM
[9]
  IC50: 12 ± 3 nM
  Ki: 63 ± 3 nM
[10]
  MIC Ea289: 32 µg/mL
  MIC: > 128 µg/mL
[3]
  MIC: > 64 µg/mL
  MIC AG100: 8 µg/mL
[11]
  IC50: 119 ± 10 nM
  Ki: 123 ± 5 nM
  AtPDF1B KI/KI*app: 2
[4]
  IC50: 7 ± 2 nM
  EcPDF KI/KI*app: 42
[4]; [15]
  Ki: 1.9 ± 0.2 nM
[4]; [16]
  Ki: 80 ± 3 nM
[12]
  MIC Ea294: 8 µg/mL
  MIC: 128 µg/mL
[13]
  MIC: 128 µg/mL

## CCCCC(CC(=O)NO)c1nc(C(N)=O)co1 (stereo not shown) [AT007]
[1]
  MIC: > 64 µg/mL
  MIC AG100A: >64 µg/mL
[2]
  MIC: > 64 µg/mL
[3]
  MIC: > 64 µg/mL
  MIC AG100: >64 µg/mL
[4]; [14]
  IC50: 740 nM
[5]
  MIC: > 64 µg/mL
[6]
  MIC: > 64 µg/mL
